Measured values reported in PMC10704437, “Sterol-activated amyloid beta fibril formation” (The Journal of Biological Chemistry, 2023).

Experiments:
Aβ42 monomer = target: T1, Aβ42 monomer (Homo sapiens, UniProt P05067); experiment: Sterol binding to Aβ42, equilibrium DHE fluorescence titrations; details: direct Aβ42 titration of DHE fluorescence; single-binding-site fit; K2PO4 50 mM, pH 7.4, 25 °C; read-out: Kd
T1 construct: Small red spheres mark the Aβ42 peptide C-terminal residue, A42; purchased Sigma-Aldrich Corp
Method: CH ([27]) and CS ([28]) increase the rate of Aβ aggregation and CH is thought to stabilize fibrils ([29]); yet, the affinities of CH and its metabolites for the Aβ peptide monomer have not been determined. Here, CH and CS affinities for the Aβ42 monomer are established using dehydroergosterol (DHE)—a fluorescent CH analog ([30]) used as a competitive probe to determine CH and CS affinities. Aβ42 monomers were prepared as previously described ([31]) (see Methods). […] Under this condition, Aβ42 essentially quantitatively binds DHE until its concentration exceeds that of DHE, which results in a breakpoint in the titration curve that yields the stoichiometry. The arrow seen descending from the breakpoint indicates a stoichiometry of 1:1, which agrees well with the ∼1:1 CH-metabolite:Aβ stoichiometry estimated from analysis of senile plaques micro-dissected from AD-patient brain tissue ([15]).
Figure 1 Sterol binding to Aβ42at equilibrium.A, DHE affinity for monomeric Aβ4_2. […] Binding was detected via the binding-induced 4.4 (±0.2)-fold increase in DHE fluorescence (λex = 325 nm, λem= 375 nm). Fluorescence intensity, I, is plotted relative to the intensity at zero titrant, I0. Titrations were performed independently in triplicate and the line passing through the data is the least-squares fit to a single-binding-site model. B, Aβ42:DHE stoichiometry. […] C. DHE fluorescence (λex = 325 nm, λem = 375 nm) is plotted versus [Aβ42]/[DHE]. The line descending from the titration breakpoint indicates a stoichiometry of 1:1. C and D, CH and CS affinities. Affinities were determined by competitive binding versus DHE. […] C, was titrated with CH (5.0–500 nM, 0.05–5 × Kd) or CS (5.0–500 nM, 0.15–[…] × Kd). Binding was monitored via the decrease in DHE fluorescence (λex = 325, λem = 375) caused by DHE displacement from Aβ42. Controls ensured that <2.0% of Aβ42 oligomerized during the measurement. Titrations were performed in triplicate and averaged. The solid lines through the data represent least-squares fits to a competitive single-binding-site model. C and D, insets highlight the behavior of the titration over ligand concentrations that span their reported CMCs (indicated by arrows). […]
DHE/Aβ42 binding interactions were monitored via the binding-induced 4.4-fold change in DHE fluorescence (λex = 325 nm, λem= 375 nm). […]
The affinities of CH and CS for Aβ42 were determined in competitive binding studies versus DHE. Binding was detected via the fluorescence decrease (λex= 325 nm, λem = 375 nm) caused by DHE displacement. […] Imax = (fraction DHE-bound to peptide at zero competitive ligands)/4.4 — the fold fluorescence change associated with DHE dissociation, see Figure 1A.

Aβ42 = target: T2, Aβ42 (Homo sapiens, UniProt P05067); experiment: Sterol binding to Aβ42, pre-steady-state stopped-flow fluorescence
T2 construct: Small red spheres mark the Aβ42 peptide C-terminal residue, A42; purchased Sigma-Aldrich Corp
Method: To establish the rates at which Aβ42•ligand complexes form and dissociate, the rate constants governing the binding reactions were determined. DHE binding was monitored in real time using a stopped-flow fluorimeter via binding-induced changes in DHE fluorescence. The reactions are pseudo first order in [ligand] and kobs was obtained by least-squares fitting progress curves to a single-exponential equation ([44], [45]). kobs values were determined (in triplicate) at a series of Aβ42 concentrations and the averaged values are plotted versus [Aβ42] in Figure 2B. kon and koff are given by the slope and intercept of the kobs-versus-[Aβ42] plot obtained by linear least-square fitting ([44], [45]). […] The rate constants are compiled in Table 1.
Figure 2 Sterol binding to Aβ42—pre-steady state studies.A, DHE binding. Reactions were monitored via binding induced changes in DHE fluorescence using a stopped-flow fluorimeter (λex = 325, λem > 400 nm). Fluorescence intensity, I, is reported relative to the intensity in the absence of ligand, Io. […] C was rapidly mixed (1:1, v/v) with a solution identical except that Aβ42 was replaced by DHE (40 nM, 2.7 × Kd). The bindingreaction curve shown is the average of five independent progress curves. The averaged curve was a least-squares fit to a single-exponential equation and the resulting best fit (indicated by the red line) yielded kobs. B, DHE kon and koff. kobs values obtained as in Panel A were determined in triplicate at varying Aβ42 concentrations and the averaged values are shown plotted versus [Aβ42]. kon and koff are given by the slope and intercept of a linear least-squares fit of the kobsversus [Aβ42] plot. C and D, CH and CS displacement reactions.
Pre-steady-state binding of sterols to Aβ42 was monitored via the binding-induced change in DHE fluorescence (λex = 325, λem > 400 nm) using an Applied Photophysics SX20 stopped-flow fluorimeter.
Three progress curves (each an average of five independently obtained curves) were collected at five separate Aꞵ42 concentrations. The observed rate constant (kobs) at a given [Aβ42] was obtained by fitting the average of the three curves to a single-exponential equation using Pro-K software ([75]). kon and koff were obtained from the slopes and intercepts predicted by linear least-squares analysis of kobs versus [Aβ42] plots.
C. […] Progress curves were determined in triplicate and koff was obtained by least-squares fitting the averaged curves to a single-exponential equation using Pro-K.

T2 sequence (P05067 672-713 limits assumed): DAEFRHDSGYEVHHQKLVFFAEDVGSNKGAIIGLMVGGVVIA
T1 sequence (P05067 672-713 limits assumed): as above

`CC(C)[C@@H](C)/C=C/[C@@H](C)[C@H]1CC[C@H]2C3=CC=C4C[C@@H](O)CC[C@]4(C)C3=CC[C@]12C` [DHE, dehydroergosterol, reference compound] was tested, and the Kd (Aβ42 monomer) was 16 nM, the koff (Aβ42; intercept of kobs versus [Aβ42] plot, stopped-flow, pH 7.4, 25 °C) was 1 s⁻¹ and the Kd (Aβ42; ratio of rate constants, read-out: koff/kon) was 17 nM. The kon (Aβ42; slope of kobs versus [Aβ42] plot, stopped-flow, pH 7.4, 25 °C) was 6e+07 M⁻¹ s⁻¹.
